2 molecules from US7572444B2, “Binding proteins specific for human matriptase” (Amgen Fremont Inc., priority 2004, dated 2009) can be followed below.

In test [1] the test system is unknown protease present in the B cell culture supernatant. Put plainly: QAR-MCA cleavage by unknown protease of B cell culture supernatant. Type of test: biochemical. The conditions noted are these: QAR-MCA substrate. From the text: (§1) The development of the assay method was complicated by the finding that an unknown protease was present in the B cell culture supernatant that was able to cleave the QAR-MCA substrate. […] This was advantageous as the background cleavage would no longer affect the ability to identify neutralizing antibodies against Matriptase. The supernatant also contained an unknown Matriptase inhibitor that necessitated a relatively high Matriptase concentration in the assay.

For test [2], the target named is T1, catalytic domain of Matriptase (Homo sapiens, UniProt Q9Y5Y6).
T1 sequence (Q9Y5Y6 615-855): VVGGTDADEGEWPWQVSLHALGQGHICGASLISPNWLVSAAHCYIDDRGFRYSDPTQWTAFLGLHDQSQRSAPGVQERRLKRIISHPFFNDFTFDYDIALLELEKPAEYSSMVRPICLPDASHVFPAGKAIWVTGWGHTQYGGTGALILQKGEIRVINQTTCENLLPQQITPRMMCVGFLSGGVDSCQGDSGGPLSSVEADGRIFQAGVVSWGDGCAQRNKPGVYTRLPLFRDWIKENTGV
Put plainly: Enzymatic assay with tripeptide QAR-MCA substrate (Tripeptide-MCA assay). Type of test: biochemical. The conditions noted are these: at the concentration that inhibits the unknown protease. As for the experimental part: All 972 wells were then analyzed in an enzymatic assay using the catalytic domain of Matriptase and the tripeptide QAR-MCA (Peptides International Inc., Louisville, Ky.) as substrate. The cleavage of the QAR-MCA substrate by Matriptase causes the release of a methylcoumarin amide group (MCA) as amino-methyl coumarin (AMC). The free AMC can then be detected using a fluorescent reader as a measure of Matriptase activity.
as §1
The wells were determined to be positive based on their ability to inhibit Matriptase activity in two assays compared with average of the irrelevant control wells (enzyme, substrate and B cell culture supernatant) shown below. The data is shown as a percentage of the average of the negative control wells (enzyme and substrate) as in Table 3.

Test [3] relates to Ramos tumor-bearing SCID mice. Put plainly: Ramos hind-limb paralysis model. The format is in vivo. To be noted: 5 mg/kg, d1, i.p., 1×10^6 Ramos cells i.v. As for the experimental part:
The ability of sc95/96 to modulate the invasive and/or metastatic properties of Ramos cells was evaluated in a rodent hind-limb paralysis model. Without therapeutic intervention, SCID mice inoculated systemically with Ramos B lymphoma cells develop hind limb paralysis at ˜25 days post injection, presumably related to the accumulation of tumor cells in the spinal cord and/or brain tissues (dijoseph et al., 2004, Clinical Cancer Research 10: 8620-8629).
In this experiment, 7-8 week old C.B-17 SCID male mice were inoculated with 1×10^6 Ramos cells via tail vein injection. […] Groups 1-3 thereafter received weekly 25 mg/kg injections of antibody or an equivalent volume of PBS. Animals were given food and water ad libidum and monitored daily for signs of paralysis. Individual mice were euthanized when unable to move due to hind limb paralysis.

Test [4] concerns Ramos cells. In words: CDC assay. To be noted: 10, 5, 2.5 and 1.25 μg/mL, 25% human sera, 1 hour; sc95/96 as IgG1 or IgG2. Type of test: cell-based. On the procedure:
In this experiment, 100,000 Ramos cells in 25 μL of media were added to the bottom of a 96-well plate. […] Each sample point was run in quadruplicate. After 10 minutes at room temperature, 50 μL of 50% human sera (25% final concentration) was added to the cells and incubated at 37 degrees Celsius for 1 hour. CellTiterGlo reagent (100 μL) was added to each well and allowed to incubate on the cells for 10 minutes.

Test [5] has as its system Raji cells. In words: ADCC assay. The format is cell-based, human. To be noted: 0.0001 to 1 μg/ml, NK effector cells, 4 hours. As for the experimental part:
Raji cells were used as target cells for the ADCC assay. To prepare the target cells, Raji cells were harvested and resuspended in media at 1.0×10^6 cells/ml. Calcein (Sigma C1359) was then added to a final concentration of 10 μM, and the cells were incubated for 45-60 minutes at 37° C., after which the Raji cells were pelleted by centrifugation at 1200 rpm for 10 minutes. The supernatant was discarded and the cells were resuspended in growth media. The centrifugation step was repeated, the cells were resuspended at a concentration of 1.0×10^4 cells in 75μL media and were then plated at 1.0×10^4 cells per well in a round bottom plate. […] The cells and antibody were incubated for 30 minutes at room temperature.
The effector cells for the ADCC assay were prepared as follows. […] The cells were counted to determine the concentration of natural killer (NK) cells, diluted to a concentration of 9.0×10^4 cells per 75 μL, and then 75 μL of these cells were then added to the Raji cells from the step above and then incubated for 4 hours at 37° C. The plate was then centrifuged at 1200 rpm for 5 minutes, and 100 μL of the supernatant was transferred to a flat, black clear-bottom 96 well plate and subsequently read on a Victor plate reader using a 490 nm excitation and 530 nm emission wavelength.

In the case of `O=S(=O)(F)Cc1ccccc1` [PMSF, phenylmethyl sulfonyl fluoride], the “inhibition of activity of the unknown protease” value in test [1] is reported as “completely inhibit”. For the same molecule, the “effect on activity of Matriptase” value in test [2] was “without affecting the activity of Matriptase”.
Turning to Rituximab [reference compound], the Median survival time result in test [3] is recorded as “greater than 45 days”. In addition, the “CDC on Ramos cells” value in test [4] is listed as “did demonstrate CDC activity”. Also, the “Raji cell lysis by ADCC” value in test [5] is on record as “induce Raji cell lysis by ADCC”.
